Experimental data published in paper PMC5471521, “Novel selective β1-adrenoceptor antagonists for concomitant cardiovascular and respiratory disease” (The FASEB Journal, 2017).
Read-outs that look alike come from different tables or passages of the source.

How the values were obtained:
[1] = biological target: T1, human β1-AR (Homo sapiens, UniProt P08588); assay: Antagonism of cimaterol-induced 3H-cAMP accumulation in CHO-β1 cells; format: cell-based; settings: for Schild slope: CHO-β1 cells, 3 antagonist concentrations, 1 = competitive antagonism; for Kd: Gaddum equation, cimaterol agonist, mean ± SEM, read-out: Log Kd,β1 (converted); for SI1b (in vitro inhibition of functional response) = Kd,β2/Kd,β1: Kd values from antagonism of cimaterol-induced 3H-cAMP accumulation, Table 2; for β1 vs. β2 selectivity Kd,β2/Kd,β1: from antagonism of cimaterol-induced 3H-cAMP accumulation
T1 construct: expressed in transfected cells
Experimental: (§1) Confluent cells were examined (24-well plates, 5 h incubation at 37°C) as described in Baker ([45]). Antagonist Kd values were calculated from a rightward shift of the agonist concentration response curve by using the Gaddum equation as previously described ([46]).

[2] = biological target: CYP2D6 (Homo sapiens, UniProt P10635); assay: P450 inhibition in human liver microsomes; format: in vitro ADME; design: in human liver microsomes (batch 34689 for CYP1A2 and CYP3A4; batch 0910251 for CYP2C9, CYP2C19, and CYP2D6); tissue batch 0910251; host or cells: human liver microsomes; settings: 0.25–20 μM, hydrochloride salts used
Experimental: Concentrations of NDD-713.HCl and -825.HCl (0.25–20 μM) were incubated in triplicate (37°C for 4–40 min) with substrates specific for individual P450 isoforms (see Supplemental Data for full details) in human liver microsomes (batch 34689 for CYP1A2 and CYP3A4; batch 0910251 for CYP2C9, CYP2C19, and CYP2D6) at protein concentrations of 0.4 mg/ml (CYP1A2, CYP2C9, CYP2D6 and CYP3A4/5) or 1.0 mg/ml (CYP2C19) and a total organic solvent concentration <1%. Reaction was initiated by addition of NADPH-regenerating system and samples were quenched by addition of ice-cold acetonitrile, which contained 0.15 μg/ml diazepam as an internal standard, before determination of the concentration of specific metabolites by LC-MS. Compound IC50 values (and positive control) for each P450 isoform was assessed according to %reduction in formation of the specific metabolite (maximal metabolite formation occurring in the absence of inhibitor). […] Control samples were included to confirm that the LC-MS assay was not affected by test compounds (and potential metabolites). Studies were carried out by CDCO.

[3] = Aqueous solubility by nephelometry; format: physicochemical; settings: kinetic from dmso stock
Experimental: NDD-713.HCl and -825.HCl were added to either aqueous phosphate buffer (pH 6.5) or 0.01 M aqueous HCl (pH ∼2) at final DMSO concentrations of 1%. Samples were analyzed by nephelometry to determine solubility ranges ([48]). Studies were carried out by the Centre for Drug Candidate Optimisation (CDCO; Monash University, Melbourne, VIC, Australia).

[4] = test system: Salmonella typhimurium strains TA98, TA100, TA1535, and TA1537; settings: concentrations of ≤10 μM, with or without rat liver S9
Experimental: Ames fluctuation assays were performed by using Salmonella typhimurium strains TA98, TA100, TA1535, and TA1537 to detect frame-shifts and base substitutions that led to missense mutations in liquid culture in 384-well plates. Bacterial plates were incubated with serially diluted NDD-713 and -825 solutions for 96 h, and bacterial growth was measured spectrophotometrically by using a pH color-change indicator in response to bacterial growth acidification. Assays were conducted with or without metabolic activation via addition of rat liver S9 fraction. Bacteriocidal or bacteriostatic effects were assessed by using a bacterial cytotoxicity assay that was conducted in parallel with Ames fluctuation assays. Reference compounds were 2-aminoanthracene, 9-aminoacridine, quercetin, streptozotocin (genotoxicity), and mitomycin C (bacterial cytotoxicity). Study was carried out by Cerep (Celle L’Evescault, France).

[5] = biological target: T2, human β2-AR (Homo sapiens, UniProt P07550); assay: 3H-CGP12177 whole-cell binding in CHO-β2 cells; settings: mean ± SEM, cells marked ^a are apparent log Kd (specific binding not fully inhibited)
T2 construct: expressed in transfected cells

[6] = biological target: T3, human β3-AR (Homo sapiens, UniProt P13945); assay: Antagonism of cimaterol-induced 3H-cAMP accumulation in CHO-β3 cells; format: cell-based; settings: cimaterol agonist, mean ± SEM, read-out: Log Kd,β3 (converted)
T3 construct: expressed in transfected cells
Experimental: as §1

[7] = test system: HR (β1) and HQC (β2) in conscious rats; assay: In vivo β1- vs. β2-selectivity, intravenous β-blocker, conscious rats (isoprenaline responses); design: species or system rat; settings: i.v. 2 mg/kg bolus + 1 mg/kg/h infusion, n = 4
Experimental: Adult male Sprague-Dawley rats, weighing 300−400 g, were chronically instrumented with pulsed Doppler flow probes and intravascular catheters for cardiovascular monitoring and drug administration in a 2-stage surgical protocol as described ([51]). Surgery was performed under general anesthesia (fentanyl and medetomidine, 300 μg/kg of each, i.p.), with reversal and postoperative analgesia provided by atipamezole (1 mg/kg, s.c.) and buprenorphine (0.02 mg/kg, s.c.). Experiments were performed with animals that were fully conscious and unrestrained in home cages and given free access to food and water. Cardiovascular variables were recorded by using a customized, computer-based system (Instrument Development Engineering Evaluation, Maastrich Instruments Bv, Maastrich, The Netherlands) with raw data sampled every 2 ms. Hindquarters vascular conductance (HQC) was calculated as Doppler shift (flow)/mean arterial pressure.
Isoprenaline infusions were repeated during the final 60 min of β-blocker infusion and 3–4 and 23–24 h after β-blocker infusions finished.
Isoprenaline responses shown are absolute values for HR and HQC before the first dose of isoprenaline (baseline) and during the third minute of infusion of each dose. Values at baseline and during the highest isoprenaline dose were tested for statistical significance by using a nonparametric ANOVA test with correction for repeat measures [Quade test ([52])]. A value of P < 0.05 was taken as significant.

[8] = biological target: hERG channels (Homo sapiens, UniProt Q12809); assay: hERG automated patch-clamp electrophysiology
Experimental: In addition, the potential of the compound to inhibit hERG channels was tested by using an automated patch-clamp electrophysiological assay (BioFocus, Cambridge, United Kingdom; using the Precision hERG-HEK recombinant cell line from on an Ion Works Quattro automated electrophysiology platform; Millipore, Billerica, MA, USA).

[9] = 0.01 M aqueous HCl, simulated gastric fluid, pH 2.0, hydrochloride salts used, read-out: Aqueous solubility Saq at pH 2.0
[10] = aqueous phosphate buffer, aqueous buffer, pH 6.5, hydrochloride salts used, read-out: Aqueous solubility Saq at pH 6.5

T1 sequence (P08588 whole entry): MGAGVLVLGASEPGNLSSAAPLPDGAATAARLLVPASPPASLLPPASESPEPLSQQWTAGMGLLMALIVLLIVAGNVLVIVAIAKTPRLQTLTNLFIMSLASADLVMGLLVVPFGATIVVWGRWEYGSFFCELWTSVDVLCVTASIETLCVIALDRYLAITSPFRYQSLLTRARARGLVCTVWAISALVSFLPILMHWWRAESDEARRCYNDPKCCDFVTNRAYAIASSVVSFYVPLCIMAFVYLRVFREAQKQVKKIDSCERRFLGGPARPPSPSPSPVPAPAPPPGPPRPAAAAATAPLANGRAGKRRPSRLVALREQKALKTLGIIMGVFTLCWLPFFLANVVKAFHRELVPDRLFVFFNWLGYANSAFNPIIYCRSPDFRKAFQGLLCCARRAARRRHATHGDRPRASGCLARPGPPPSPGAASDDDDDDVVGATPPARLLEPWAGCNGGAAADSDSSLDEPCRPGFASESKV
T2 sequence (P07550 whole entry): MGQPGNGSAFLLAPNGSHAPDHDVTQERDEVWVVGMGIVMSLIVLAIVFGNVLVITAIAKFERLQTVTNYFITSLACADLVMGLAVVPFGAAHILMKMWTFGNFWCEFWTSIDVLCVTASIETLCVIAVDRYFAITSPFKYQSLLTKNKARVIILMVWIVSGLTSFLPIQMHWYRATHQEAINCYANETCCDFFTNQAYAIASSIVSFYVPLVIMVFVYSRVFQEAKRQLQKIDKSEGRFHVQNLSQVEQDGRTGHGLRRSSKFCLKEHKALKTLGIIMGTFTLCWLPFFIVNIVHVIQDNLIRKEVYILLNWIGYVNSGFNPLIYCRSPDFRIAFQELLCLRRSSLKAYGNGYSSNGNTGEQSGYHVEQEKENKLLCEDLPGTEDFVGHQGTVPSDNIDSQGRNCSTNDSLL
Sequence of hERG channels (Q12809 whole entry): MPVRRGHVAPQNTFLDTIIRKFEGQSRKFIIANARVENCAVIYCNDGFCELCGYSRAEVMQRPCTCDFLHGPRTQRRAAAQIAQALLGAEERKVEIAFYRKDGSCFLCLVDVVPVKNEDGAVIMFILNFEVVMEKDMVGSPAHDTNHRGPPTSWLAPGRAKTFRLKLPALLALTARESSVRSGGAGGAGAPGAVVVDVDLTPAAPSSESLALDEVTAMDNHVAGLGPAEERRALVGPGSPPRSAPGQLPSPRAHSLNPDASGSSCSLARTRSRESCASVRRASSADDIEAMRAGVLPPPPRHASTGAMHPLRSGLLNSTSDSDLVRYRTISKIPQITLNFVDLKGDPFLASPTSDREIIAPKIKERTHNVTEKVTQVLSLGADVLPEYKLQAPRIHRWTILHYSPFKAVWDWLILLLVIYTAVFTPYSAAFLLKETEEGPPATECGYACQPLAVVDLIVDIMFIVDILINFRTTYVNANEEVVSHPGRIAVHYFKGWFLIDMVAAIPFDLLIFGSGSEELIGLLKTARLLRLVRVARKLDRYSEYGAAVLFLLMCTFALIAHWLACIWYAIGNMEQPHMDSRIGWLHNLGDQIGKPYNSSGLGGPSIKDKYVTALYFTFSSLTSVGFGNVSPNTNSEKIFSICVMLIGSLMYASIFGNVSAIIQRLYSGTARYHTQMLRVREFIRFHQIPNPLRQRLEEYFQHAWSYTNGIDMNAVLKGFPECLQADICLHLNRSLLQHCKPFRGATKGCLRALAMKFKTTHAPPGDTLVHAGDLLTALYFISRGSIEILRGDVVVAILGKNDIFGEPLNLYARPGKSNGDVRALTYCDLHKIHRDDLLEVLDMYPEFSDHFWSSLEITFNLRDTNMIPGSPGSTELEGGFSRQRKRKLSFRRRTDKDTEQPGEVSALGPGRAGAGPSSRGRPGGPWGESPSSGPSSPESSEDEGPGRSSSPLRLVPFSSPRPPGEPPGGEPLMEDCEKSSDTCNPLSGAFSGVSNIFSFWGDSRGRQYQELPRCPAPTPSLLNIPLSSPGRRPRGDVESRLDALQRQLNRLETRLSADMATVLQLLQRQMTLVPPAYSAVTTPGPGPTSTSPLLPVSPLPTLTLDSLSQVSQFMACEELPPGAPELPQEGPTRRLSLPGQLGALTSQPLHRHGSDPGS
T3 sequence (P13945 whole entry): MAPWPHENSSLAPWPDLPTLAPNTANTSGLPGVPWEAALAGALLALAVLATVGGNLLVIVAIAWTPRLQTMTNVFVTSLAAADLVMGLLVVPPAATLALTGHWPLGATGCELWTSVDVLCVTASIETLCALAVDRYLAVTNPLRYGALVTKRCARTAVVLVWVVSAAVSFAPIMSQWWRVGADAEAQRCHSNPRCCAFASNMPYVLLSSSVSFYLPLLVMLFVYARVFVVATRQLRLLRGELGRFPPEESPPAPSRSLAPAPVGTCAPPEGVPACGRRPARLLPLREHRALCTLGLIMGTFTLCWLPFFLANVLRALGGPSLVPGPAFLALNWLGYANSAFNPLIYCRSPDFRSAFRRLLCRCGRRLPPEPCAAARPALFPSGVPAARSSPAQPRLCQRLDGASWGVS
Sequence of CYP2D6 (P10635 whole entry, canonical isoform): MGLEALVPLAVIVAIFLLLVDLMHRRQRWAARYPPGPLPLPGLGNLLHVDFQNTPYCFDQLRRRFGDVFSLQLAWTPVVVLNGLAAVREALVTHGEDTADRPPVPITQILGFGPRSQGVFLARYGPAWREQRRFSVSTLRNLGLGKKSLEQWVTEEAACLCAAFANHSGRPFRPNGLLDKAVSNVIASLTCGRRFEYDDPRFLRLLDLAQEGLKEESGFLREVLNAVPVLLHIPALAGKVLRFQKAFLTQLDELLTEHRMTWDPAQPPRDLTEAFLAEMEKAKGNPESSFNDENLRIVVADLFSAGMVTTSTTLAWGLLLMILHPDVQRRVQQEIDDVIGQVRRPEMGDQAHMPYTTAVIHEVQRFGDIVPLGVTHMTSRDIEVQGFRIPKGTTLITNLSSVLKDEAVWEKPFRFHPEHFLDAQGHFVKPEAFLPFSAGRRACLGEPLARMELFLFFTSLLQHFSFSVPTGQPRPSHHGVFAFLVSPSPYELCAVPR

SMILES | Schild slope [1] | Kd [1] | SI1b (in vitro inhibition of functional response) = Kd,β2/Kd,β1 [1] | β1 vs. β2 selectivity Kd,β2/Kd,β1 [1] | IC50 [2] | solubility [3, 9] | solubility [3, 10] | Genotoxicity in Ames tests [4] | Kd [5] | Kd [6] | Effect on basal and isoprenaline-stimulated HR (β1) [7] | Effect on isoprenaline HQC response (β2) [7] | IC50 [8]
NC(=O)c1ccc(OCCNC[C@H](O)COc2ccc3c(c2)OC[C@@H](COCC2CC2)O3)cc1 [NDD-713] | 1.06 ± 0.03 | 0.00302 µM | 1202 | 1202 | > 20 µM | > 100 µg/mL | 25 to 50 µg/mL | Neither compound displayed genotoxicity | 8.91 µM | 3.39 µM | suppressed basal and isoprenaline-induced HR | no effect on HQC responses | > 10 µM
O=C1NCc2cc(OCCNC[C@H](O)COc3ccc4c(c3)OC[C@@H](COCC3CC3)O4)ccc21 [NDD-825] | 1.04 ± 0.02 | 0.00102 µM | 1738 | 1738 | > 20 µM | > 100 µg/mL | 50 to 100 µg/mL | Neither compound displayed genotoxicity | 5.37 µM | 1.91 µM | suppressed basal and isoprenaline-induced HR | no effect on HQC responses | > 10 µM
